Activity calls are given as the source filed them. No cut-off for these calls is given here.
Columns and labels:
[1] = Fraction unbound in rat serum; format: ADME, cell-free
[2] = target: T1, Metabotropic glutamate receptor 5 (Homo sapiens, UniProt P41594); assay: Antagonist activity against human mGluR5A transfected in HEK293 cells assessed as inhibition of L-glutamate-induced calcium release up to 3 uM after 10 mins by FLIPR assay; format: functional, cell-based
Target sequence in this assay (P41594 21-1212 limits assumed): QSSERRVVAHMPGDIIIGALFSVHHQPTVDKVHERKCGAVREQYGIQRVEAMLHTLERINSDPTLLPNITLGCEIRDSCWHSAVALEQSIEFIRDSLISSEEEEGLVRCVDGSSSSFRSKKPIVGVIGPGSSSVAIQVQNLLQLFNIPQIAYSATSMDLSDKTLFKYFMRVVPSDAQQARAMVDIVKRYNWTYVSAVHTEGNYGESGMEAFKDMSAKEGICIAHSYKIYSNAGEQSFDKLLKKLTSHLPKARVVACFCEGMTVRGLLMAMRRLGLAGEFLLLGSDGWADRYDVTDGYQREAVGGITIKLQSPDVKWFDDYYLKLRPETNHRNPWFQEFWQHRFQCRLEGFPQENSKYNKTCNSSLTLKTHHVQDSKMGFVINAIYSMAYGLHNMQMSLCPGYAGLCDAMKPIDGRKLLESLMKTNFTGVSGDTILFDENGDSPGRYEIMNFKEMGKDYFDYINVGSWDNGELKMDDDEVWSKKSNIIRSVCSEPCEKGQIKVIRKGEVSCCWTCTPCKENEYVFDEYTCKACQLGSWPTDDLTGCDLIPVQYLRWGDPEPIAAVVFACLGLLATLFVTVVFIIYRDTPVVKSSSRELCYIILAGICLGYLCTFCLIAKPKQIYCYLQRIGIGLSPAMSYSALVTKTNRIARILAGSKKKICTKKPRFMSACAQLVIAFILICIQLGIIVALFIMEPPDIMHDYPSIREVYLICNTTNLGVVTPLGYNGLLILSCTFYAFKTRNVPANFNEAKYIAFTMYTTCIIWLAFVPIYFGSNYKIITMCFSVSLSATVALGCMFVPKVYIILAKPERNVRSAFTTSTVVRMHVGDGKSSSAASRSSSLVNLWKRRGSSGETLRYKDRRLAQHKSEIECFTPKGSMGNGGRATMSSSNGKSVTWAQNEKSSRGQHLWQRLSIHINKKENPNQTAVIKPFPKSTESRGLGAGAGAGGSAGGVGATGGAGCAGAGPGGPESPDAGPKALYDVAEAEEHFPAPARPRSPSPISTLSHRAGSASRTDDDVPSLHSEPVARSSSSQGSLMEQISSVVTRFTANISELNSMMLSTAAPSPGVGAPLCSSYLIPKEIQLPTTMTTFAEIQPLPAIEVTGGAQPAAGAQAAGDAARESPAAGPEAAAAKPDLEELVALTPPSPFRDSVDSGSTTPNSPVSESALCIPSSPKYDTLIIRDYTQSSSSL

[3] = target: T1, Metabotropic glutamate receptor 5; assay: Positive allosteric modulation of human mGluR5A transfected in HEK293 cells assessed as potentiation of L-glutamate-induced calcium release incubated for 10 mins by FLIPR assay; format: functional, cell-based
Target sequence in this assay (P41594 whole entry): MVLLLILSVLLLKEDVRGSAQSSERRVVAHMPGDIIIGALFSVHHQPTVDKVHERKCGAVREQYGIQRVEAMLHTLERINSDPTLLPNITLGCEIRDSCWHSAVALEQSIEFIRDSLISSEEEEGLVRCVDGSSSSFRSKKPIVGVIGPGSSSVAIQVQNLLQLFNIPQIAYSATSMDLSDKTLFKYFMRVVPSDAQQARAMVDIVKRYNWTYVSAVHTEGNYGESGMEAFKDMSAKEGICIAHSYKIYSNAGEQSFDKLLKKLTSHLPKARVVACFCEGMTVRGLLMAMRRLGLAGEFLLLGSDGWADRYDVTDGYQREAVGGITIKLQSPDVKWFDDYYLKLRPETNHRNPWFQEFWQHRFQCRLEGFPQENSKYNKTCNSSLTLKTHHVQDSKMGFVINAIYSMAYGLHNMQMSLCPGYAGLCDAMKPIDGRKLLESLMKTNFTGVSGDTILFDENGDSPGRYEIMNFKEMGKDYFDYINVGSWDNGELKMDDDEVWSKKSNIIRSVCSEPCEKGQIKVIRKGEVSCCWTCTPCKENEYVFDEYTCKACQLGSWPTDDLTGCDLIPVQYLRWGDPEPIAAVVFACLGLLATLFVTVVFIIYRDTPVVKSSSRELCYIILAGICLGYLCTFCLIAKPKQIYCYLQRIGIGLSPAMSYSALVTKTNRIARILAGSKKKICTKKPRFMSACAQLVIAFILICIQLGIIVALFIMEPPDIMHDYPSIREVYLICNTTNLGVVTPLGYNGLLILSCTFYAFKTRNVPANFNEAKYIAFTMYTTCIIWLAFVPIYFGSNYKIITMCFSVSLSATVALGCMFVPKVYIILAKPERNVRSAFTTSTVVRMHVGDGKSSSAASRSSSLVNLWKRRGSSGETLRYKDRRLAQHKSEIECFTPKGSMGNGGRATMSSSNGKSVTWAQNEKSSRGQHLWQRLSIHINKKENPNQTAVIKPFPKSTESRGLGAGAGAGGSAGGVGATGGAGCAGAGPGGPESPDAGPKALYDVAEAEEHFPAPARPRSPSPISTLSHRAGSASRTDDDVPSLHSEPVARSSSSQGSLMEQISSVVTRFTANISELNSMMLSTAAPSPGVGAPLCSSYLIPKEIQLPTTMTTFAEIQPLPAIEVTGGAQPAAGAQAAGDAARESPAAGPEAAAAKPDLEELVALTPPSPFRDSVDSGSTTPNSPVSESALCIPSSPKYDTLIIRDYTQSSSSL

[4] = Fraction unbound in mouse serum; format: ADME, cell-free
[5] = Fraction unbound in human serum; format: ADME, cell-free
[6] = target: T1, Metabotropic glutamate receptor 5; assay: Displacement of [3H]-MPEP from human mGluR5A transfected in HEK293 cells after 60 mins by microbeta liquid scintillation counting analysis; format: cell-based
Target sequence in this assay (P41594 whole entry): as above

[7] = target: T1, Metabotropic glutamate receptor 5; assay: Agonist activity at human mGluR5A transfected in HEK293 cells assessed as induction of calcium release up to 3 uM by FLIPR assay; format: functional, cell-based
Target sequence in this assay (P41594 21-1212 limits assumed): as the sequence (P41594 21-1212 limits assumed) above

[8] = target: T1, Metabotropic glutamate receptor 5; assay: Displacement of [3H]-MPEPy from human mGluR5A transfected in HEK293 cell membranes after 60 mins by microbeta liquid scintillation counting analysis
Target sequence in this assay (P41594 whole entry): as the sequence (P41594 whole entry) above

[9] = target: T1, Metabotropic glutamate receptor 5; assay: Agonist activity at human mGluR5A transfected in HEK293 cells assessed as induction of calcium release by FLIPR assay; format: functional, cell-based
Target sequence in this assay (P41594 whole entry): as above

[10] = Drug uptake in C57BL/6 mouse plasma at 1 mg/kg, sc measured after 60 mins; format: ADME, organism-based
[11] = Drug uptake in C57BL/6 mouse plasma at 3 mg/kg, sc measured after 60 mins; format: ADME, organism-based
[12] = Metabolic stability in human liver microsomes assessed as compound remaining after 10 mins; format: ADME, Microsome; settings: read-out: Stability
[13] = Drug uptake in C57BL/6 mouse brain at 3 mg/kg, sc measured after 60 mins; format: ADME, organism-based; settings: read-out: Drug uptake
[14] = Metabolic stability in mouse liver microsomes assessed as compound remaining after 10 mins; format: ADME, Microsome; settings: read-out: Stability
[15] = Drug uptake in C57BL/6 mouse brain at 10 mg/kg, sc measured after 60 mins; format: ADME, organism-based; settings: read-out: Drug uptake
[16] = Drug uptake in C57BL/6 mouse plasma at 10 mg/kg, sc measured after 60 mins; format: ADME, organism-based
[17] = Metabolic stability in rat liver microsomes assessed as compound remaining after 10 mins; format: ADME, Microsome; settings: read-out: Stability
[18] = Ratio of drug uptake in C57BL/6 mouse brain to plasma at 10 mg/kg, sc measured after 60 mins; format: ADME, organism-based; settings: read-out: BPR
Mus musculus [19] = assay: Cognitive enhancing effect in sc dosed C57BL/6 mouse assessed as time spent on exploring novel objects administered 1 hr before acquisition session followed by acquisition session for 15 mins by novel object recognition test; format: functional; settings: C57BL/6, sc, read-out: MED
[20] = Drug uptake in C57BL/6 mouse brain at 1 mg/kg, sc measured after 60 mins; format: ADME, organism-based; settings: read-out: Drug uptake
[21] = Toxicity in C57BL/6 mouse assessed as induction of convulsions at 30 mg/kg, ip during 3 hrs study; format: organism-based; settings: in vivo
[22] = Ratio of drug uptake in C57BL/6 mouse brain to plasma at 3 mg/kg, sc measured after 60 mins; format: ADME, organism-based; settings: read-out: BPR
[23] = Ratio of drug uptake in C57BL/6 mouse brain to plasma at 1 mg/kg, sc measured after 60 mins; format: ADME, organism-based; settings: read-out: BPR
[24] = Toxicity in C57BL/6 mouse assessed as induction of convulsions at 3 mg/kg, ip during 3 hrs study; format: organism-based; settings: in vivo
[25] = target: T1, Metabotropic glutamate receptor 5; assay: Negative allosteric modulation of human mGluR5A transfected in HEK293 cells assessed as inhibition of L-glutamate-induced calcium release after 10 mins by FLIPR assay; format: functional, cell-based
Target sequence in this assay (P41594 whole entry): as above

[26] = Toxicity in C57BL/6 mouse assessed as induction of convulsions at 1 mg/kg, ip during 3 hrs study; format: organism-based; settings: in vivo
[27] = Toxicity in C57BL/6 mouse assessed as induction of convulsions at 10 mg/kg, ip during 3 hrs study; format: organism-based; settings: in vivo
[28] = Toxicity in C57BL/6 mouse assessed as induction of convulsions at 10 mg/kg, ip coadministered with (4R,5R)-5-phenyl-4-(4-(phenylethynyl)pyridin-2-yl)oxazolidin-2-one during 3 hrs study; format: organism-based; settings: in vivo
Mus musculus [29] = assay: Ex vivo receptor occupancy at mGluR5A in C57BL/6 mouse at 10 and 30 mg/kg; format: functional, organism-based

Row | EC50 [3] [nM] | fraction unbound [4] | fraction unbound [5] | Ki [8] [nM] | EC50 [9] [nM] | remaining at 10 min [12] [%] | remaining at 10 min [17] [%] | SMILES | other results
1 | 38 | 0.001 | < 0.001 | – | – | – | – | O=C1N[C@H](c2cccc(C#Cc3ccccc3)c2)[C@@H](c2ccccc2)O1 | fraction unbound [1]: 0.001; inhibition [2]: inactive; Ki [6]: 8.9 nM; Activity [7]: inactive
2 | 0.6 | – | – | 2.2 | 333 | – | – | O=C1N[C@H](c2cncc(C#Cc3ccccc3)c2)[C@@H](c2ccc(Cl)cc2)O1 | –
3 | 10 | 0.13 | 0.076 | 14 | > 3000 | 100 | 100 | O=C1N[C@H](c2cncc(C#Cc3ncccc3F)c2)[C@@H](c2ccc(F)cc2)O1 | concentration at 1 h [10]: 375 nM; concentration at 1 h [11]: 1430 nM; concentration at 1 h [13]: 182 nM; remaining at 10 min [14]: 100%; concentration at 1 h [15]: 542 nM; concentration at 1 h [16]: 5250 nM; Kp at 1 h [18]: 0.1 to 0.11; minimal effective dose (Mus musculus [19]): 10 mg/kg; concentration at 1 h [20]: 56 nM; Activity [21]: Non-Toxic; Kp at 1 h [22]: 0.14; Kp at 1 h [23]: 0.15
4 | – | – | – | – | – | – | – | O=C1N[C@H](c2cncc(C#Cc3ccccc3)c2)[C@@H](c2cccc(F)c2)O1 | Activity [24]: Toxic
5 | > 3000 | – | – | 2.7 | > 3000 | – | – | O=C1N[C@H](c2cncc(C#Cc3ccccc3)c2)[C@@H](c2c(F)cccc2F)O1 | IC50 [25]: 27 nM
6 | 5.5 | – | – | 1.4 | > 3000 | – | – | O=C1N[C@H](c2cncc(C#Cc3ccccc3)c2)[C@@H](c2cc(F)cc(F)c2)O1 | –
7 | 0.9 | – | – | 1.8 | > 3000 | – | – | O=C1N[C@H](c2cncc(C#Cc3ccccc3)c2)[C@@H](c2cccc(Cl)c2)O1 | –
8 | > 3000 | – | – | – | > 3000 | – | – | O=C1N[C@H](c2cncc(C#Cc3ccccc3)c2)[C@@H](c2ccccc2Cl)O1 [BMS-984923] | –
9 | 1.2 | – | – | 1.4 | > 3000 | – | – | O=C1N[C@H](c2cncc(C#Cc3ccccc3)c2)[C@@H](c2ccc(F)cc2F)O1 | Activity [24]: Toxic
10 | 0.4 | 0.009 | 0.004 | 1.7 | 504 | 81 | 92 | O=C1N[C@H](c2cncc(C#Cc3ccccc3)c2)[C@@H](c2ccc(F)cc2)O1 | remaining at 10 min [14]: 80%; Activity [26]: Toxic
11 | 14 | 0.1 | 0.14 | 16 | > 3000 | 70 | 65 | O=C1N[C@H](c2cncc(C#Cc3ccncc3)c2)[C@@H](c2ccc(F)cc2)O1 | remaining at 10 min [14]: 69%
12 | – | – | 0.035 | – | 315 | 97 | 85 | O=C1N[C@H](c2cncc(C#Cc3cncc(F)c3)c2)[C@@H](c2ccc(F)cc2)O1 | remaining at 10 min [14]: 77%; Activity [27]: Toxic; Activity [28]: Non-Toxic
13 | 4.8 | 0.11 | 0.034 | 15 | > 3000 | 92 | 100 | O=C1N[C@H](c2cncc(C#Cc3ccnc(F)c3)c2)[C@@H](c2ccc(F)cc2)O1 | Activity [27]: Toxic
14 | – | 0.01 | 0.006 | – | – | – | – | O=C1N[C@H](c2cc(C#Cc3ccccc3)ccn2)[C@@H](c2ccccc2)O1 | fraction unbound [1]: 0.009; inhibition [2]: inactive; Activity [7]: inactive
15 | 25 | 0.069 | 0.064 | 23 | > 3000 | 97 | 100 | O=C1N[C@H](c2cncc(C#Cc3ccccn3)c2)[C@@H](c2ccc(F)cc2)O1 | remaining at 10 min [14]: 89%
16 | 1.5 | – | – | 1.9 | > 3000 | – | – | O=C1N[C@H](c2cncc(C#Cc3ccccc3)c2)[C@@H](c2ccccc2F)O1 | –
17 | 0.2 | – | – | 2.8 | 50 | – | – | O=C1N[C@H](c2cncc(C#Cc3ccccc3)c2)[C@@H](c2ccc(F)c(F)c2)O1 | –
18 | 9.4 | 0.011 | 0.009 | 44 | – | – | – | O=C1N[C@H](c2cccc(C#Cc3ccccc3)n2)[C@@H](c2ccccc2)O1 | fraction unbound [1]: 0.009; inhibition [2]: inactive; Activity [21]: Non-Toxic; Activity [7]: inactive
19 | – | – | – | – | – | – | – | O=C1N[C@H](c2cncc(C#Cc3ccccc3)c2)[C@@H](c2cc(F)ccc2F)O1 | Activity (Mus musculus [29]): Active; Activity [21]: Non-Toxic
20 | 4.2 | – | – | 1.8 | > 3000 | – | – | O=C1N[C@H](c2cncc(C#Cc3ccccc3)c2)[C@@H](c2cccc(F)c2F)O1 | –
21 | 3.3 | 0.11 | 0.082 | 32 | 273 | 76 | 85 | O=C1N[C@H](c2cncc(C#Cc3cccnc3)c2)[C@@H](c2ccc(F)cc2)O1 | remaining at 10 min [14]: 87%
22 | 0.7 | 0.047 | 0.008 | 1.4 | > 3000 | – | – | O=C1N[C@H](c2cncc(C#Cc3ccccc3)c2)[C@@H](c2ccccc2)O1 | fraction unbound [1]: 0.007; inhibition [2]: inactive; Activity [21]: Non-Toxic; Activity [7]: inactive
23 | 1.5 | 0.021 | 0.005 | 2.1 | – | – | – | O=C1N[C@H](c2ccnc(C#Cc3ccccc3)c2)[C@@H](c2ccccc2)O1 | fraction unbound [1]: 0.012; inhibition [2]: inactive; Activity [7]: inactive

From ChEMBL document CHEMBL4477253, “Oxazolidinone-based allosteric modulators of mGluR5: Defining molecular switches to create a pharmacological tool box” (Bioorg Med Chem Lett, 2016)
